Data as given in patent US9775843B2, “Treatment and/or prophylaxis of TSPO mediated diseases and/or disorders” (GRÜNENTHAL GMBH, priority 2012, dated 2017).

target: T1, rat peripheral BZD receptor (Rattus norvegicus, UniProt P16257); assay: radioligand binding test, [3H]PK 11195, rat heart membranes; details: 10 μM test compound; 0.2 nM [3H]PK 11195; rat heart membrane homogenates; 15 min at 22° C.
T1 construct: rat heart membranes and [3H]PK 11195; from tissue; host or cells: rat heart membrane homogenates
Procedure: Evaluation of the in vitro affinity of test substances for the rat peripheral BZD receptor was performed according to Le Fur et al. (1983). Life Sci., 33: 449-457. For this purpose, rat heart membranes and [3H]PK 11195 (1-(2-chlorophenyl)-N-methyl-N-(1-methylpropyl)-3-isoquinolinecarboxamide) were used in a radioligand binding test system.
In detail, membrane homogenates of heart (20 μg protein) are incubated for 15 min at 22° C. with 0.2 nM [3H]PK 11195 in the absence or presence of the test compound in a buffer containing 50 mM Tris-HCl (pH 7.4) and 10 mM MgCl2 (96-well plate format). Compound addition is 100× solution in solvent. Nonspecific binding is determined in the presence of 10 μM PK 11195. Following incubation, the samples are filtered rapidly under vacuum through glass fiber filters (GF/B, Packard) presoaked with 0.3% PEI and rinsed several times with ice-cold 50 mM Tris-HCl using a 96-sample cell harvester (Unifilter, Packard). The filters are dried, then counted for radioactivity in a scintillation counter (Topcount, Packard) using a scintillation cocktail (Microscint 0, Packard). The results are expressed as a percent inhibition of the control radioligand specific binding.
The standard reference compound is PK 11195, which is tested in each experiment concurrently with the test compounds.
For analysis, the specific ligand binding to the receptors is defined as the difference between the total binding and the nonspecific binding determined in the presence of an excess of unlabelled ligand. The results are expressed as a percent of control specific binding ((measured specific binding/control specific binding)×100) obtained in the presence of the test compounds.

Compound	inhibition at 10 µM [%]
Cc1c(C(=O)NCc2cccc(F)c2)c(C(C)C)nc2cc(C(F)(F)F)ccc12 [compound 1, N-[(3-Fluorophenyl)-methyl]-2-isopropyl-4-methyl-7-(trifluoromethyl)-quinoline-3-carboxylic acid amide]	87
CCSc1nc(N2CCOCC2)cc(C)c1C(=O)NCCCC(C)(C)C [compound 2, N-(4,4-Dimethyl-pentyl)-2-ethylsulfanyl-4-methyl-6-morpholin-4-yl-pyridine-3-carboxylic acid amide]	43
CCSc1nc(N2CCOCC2)cc(C)c1C(=O)NCc1ccc(Cl)cc1 [compound 3, N-[(4-Chlorophenyl)-methyl]-2-ethylsulfanyl-4-methyl-6-morpholin-4-yl-pyridine-3-carboxylic acid amide]	91
COc1nc(N2CCOCC2)cc(C)c1C(=O)NCc1ccc(Cl)cc1 [compound 4, N-[(4-Chlorophenyl)-methyl]-2-methoxy-4-methyl-6-morpholin-4-yl-pyridine-3-carboxylic acid amide]	49
O=C(NCc1ccc(F)cc1)c1cccnc1SCCC(F)(F)c1ccc(F)cc1 [compound 5, 2-[[3,3-Difluoro-3-(4-fluorophenyl)-propyl]sulfanyl]-N-[(4-fluorophenyl)-methyl]-pyridine-3-carboxylic acid amide]	102
O=C(NCC1CC2CCC1C2)c1cccnc1SCCC(F)(F)c1ccc(F)cc1 (stereo not drawn) [compound 6, N-(5-Bicyclo[2.2.1]heptanyl-methyl)-2-[[3,3-difluoro-3-(4-fluorophenyl)-propyl]sulfanyl]-pyridine-3-carboxylic acid amide]	99
Cc1cc(N2CCOCC2)nc(C2CC2)c1C(=O)NCc1ccc(Cl)cc1 [compound 7, N-[(4-Chlorophenyl)-methyl]-2-cyclopropyl-4-methyl-6-morpholin-4-yl-pyridine-3-carboxylic acid amide]	57

The next lines start with the values.

inhibition at 10 µM [%]	Compound
103	COc1nc(N2CCOCC2)cc(C)c1C(=O)NCc1cccc(F)c1 [compound 8, N-[(3-Fluorophenyl)-methyl]-2-methoxy-4-methyl-6-morpholin-4-yl-pyridine-3-carboxylic acid amide]
53	COc1nc(N2CCOCC2)cc(C)c1C(=O)NCc1ccc(F)cc1 [compound 9, N-[(4-Fluorophenyl)-methyl]-2-methoxy-4-methyl-6-morpholin-4-yl-pyridine-3-carboxylic acid amide]
91	CCCc1nc(N2CCOCC2)cc(C)c1C(=O)NCc1cccc(F)c1 [compound 10, N-[(3-Fluorophenyl)-methyl]-4-methyl-6-morpholin-4-yl-2-propyl-pyridine-3-carboxylic acid amide]
87	Cc1cc(N2CCOCC2)nc(C2CC2)c1C(=O)NCc1ccc(F)cc1 [compound 11, 2-Cyclopropyl-N-[(4-fluorophenyl)-methyl]-4-methyl-6-morpholin-4-yl-pyridine-3-carboxylic acid amide]
97	CC(C)CCNC(=O)c1cccnc1SCCC(F)(F)c1ccc(F)c(F)c1 [compound 12, 2-[[3-(3,4-Difluoro-phenyl)-3,3-difluoro-propyl]-sulfanyl]-N-(3-methyl-butyl)-pyridine-3-carboxylic acid amide]
95	CCSc1nc(N2CCOCC2)cc(C)c1C(=O)NCc1cccc(F)c1 [compound 13, 2-Ethylsulfanyl-N-[(3-fluorophenyl)-methyl]-4-methyl-6-morpholin-4-yl-pyridine-3-carboxylic acid amide]
90	Cc1cc(N2CCOCC2)nc(C2CC2)c1C(=O)NCc1cccc(F)c1 [compound 15, 2-Cyclopropyl-N-[(3-fluorophenyl)-methyl]-4-methyl-6-morpholin-4-yl-pyridine-3-carboxylic acid amide]
96	CC(C)CCNC(=O)c1cccnc1SCCC(F)(F)c1ccc(F)cc1 [compound 16, 2-[[3,3-Difluoro-3-(4-fluorophenyl)-propyl]sulfanyl]-N-(3-methyl-butyl)-pyridine-3-carboxylic acid amide]
